Article PMC11050087, “Polyphenols from Maackia amurensis Heartwood Protect Neuronal Cells from Oxidative Stress and Prevent Herpetic Infection” (International Journal of Molecular Sciences, 2024)
Several values for one entry are separate records, joined by “and”; a condition that tells them apart may be missing. Equal entries are not always repeated.

Experiments:
[1] = tested on: 6-OHDA-treated Neuro-2a cells; test: 6-OHDA-induced neurotoxicity model, cell viability test (MTT); format: cell-based, murine; settings: compounds at 10, 1, 0.1 µM; 6-OHDA 100 µM
Experimental: Neuro-2a cells were incubated with the studied polyphenolic compounds for 1 h. Then, 100 µM of 6-hydroxydopamine 6-OHDA were added. We determined the percentage of living Neuro-2a cells after treatment with 6-OHDA (Figure 4a–d).
Figure 4 The effect of polyphenolic compounds isolated from M. amurensis heartwood on the viability of Neuro-2a cells treated with 6-OHDA (100 μM) (a–d). The viability of Neuro-2a cells treated with various compounds and 6-OHDA was measured by the MTT assay. Polyphenolic compounds isolated from M. amurensis heartwood were used at concentrations 10, 1, 0.1 μM. The data are presented as means ± SEM of three independent replicates. (*) indicate p < 0.05 versus 6-OHDA-treated cells.
After 24 h of adhesion, Neuro-2a cells (5 × 10^4 cells/mL) were treated with polyphenolic compounds at concentrations of 0.1, 1 and 10 μM for 1 h. Then, 100 µM of 6-OHDA or 1 mM of PQ (Sigma-Aldrich, St. Louis, MO, USA) were added. Cells incubated without inductors or with inductors were used as positive and negative control, respectively. Cell viability was measured after 24 h using the MTT assay.

[2] = tested on: 6-OHDA-treated Neuro-2a cells; test: ROS analysis in 6-OHDA-treated cells (H2DCF-DA); format: cell-based, murine; settings: compound 1 µM; 6-OHDA 120 µM
Experimental: We studied the effect of polyphenolic compounds set on ROS levels in 6-OHDA-treated Neuro-2a cells (Figure 5a–d).
Figure 5 The effect of polyphenolic compounds isolated from M. amurensis heartwood on ROS levels in Neuro-2a cells treated with 6-OHDA (120 μM) (a–d). Polyphenolic compounds isolated from M. amurensis heartwood were used at concentrations 10, 1, 0.1 μM. The data are presented as means ± SEM of three independent replicates.
After 24 h of adhesion, Neuro-2a cells (5 × 10^4 cells/mL) were incubated with polyphenolic compounds at concentrations of 0.1, 1, and 10 µM for 1 h. Then, 120 µM of 6-OHDA or 1 mM of PQ were added to each well, and cells were incubated for 1 h. To study the ROS formation, 20 µL of 2,7-dichlorodihydrofluorescein diacetate solution (H2DCF-DA, Sigma-Aldrich, St. Louis, MO, USA) were added to each well, so that the final concentration was 10 µM. Then, the microplate was incubated for 30 min at 37 °C.

[3] = Cytotoxicity against Vero cells (MTT assay); format: cell-based; settings: African green monkey
Experimental: We prepared the stock solutions of the tested compounds (10 mg/mL) in DMSO (Sigma, St. Louis, MO, USA). For the MTT assay and further studies of anti-HSV-1 activity, we diluted the stock solutions with DMEM so that the final concentration of DMSO was 0.5%.
We used MTT assay to determine the cytotoxic effect of the tested compounds against Vero cells. We performed the MTT assay as previously described.

[4] = tested on: HSV-1; test: Virucidal activity, CPE inhibition assay (HSV-1 pretreated with compounds); format: cell-based, HSV-1 strain L2
Experimental: The antiviral activity of polyphenols from M. amurensis against HSV-1 was assessed using the cytopathic effect inhibition (CPE) assay. To study the inhibitory effect of polyphenolic compounds directly on the HSV-1 virus (direct virucidal activity), the monolayer of Vero cells grown on 96-well plates (1 × 10^4 cells/well) was infected with the virus (100 TCD50/mL), pretreated with different concentrations of polyphenolic compounds.
(§1) The HSV-1 strain L2 obtained from N.F. Gamaleya Federal Research Centre for Epidemiology and Microbiology (Moscow, Russia) was grown in Vero cells as previously described.
(§2) We determined the direct inhibitory effect of polyphenolic compounds from M. amurensis heartwood on HSV-1 (virucidal effect). We mixed the virus at an infectious dose (100 TCID50/mL) with polyphenolic compounds (from 0.1 to 100 µg/mL) at a ratio of 1:1 (v/v) and incubated for an hour at 37 °C. Then, we infected the monolayer of Vero cells grown on 96-well plates (1 × 10^4 cells/well) with HSV-1 pretreated with the studied compounds. After 1 h adsorption at 37 °C, the cells were washed with phosphate-buffered saline (PBS) and overlaid by the maintenance medium with 1% FBS. The plates were incubated for 72 h at 37 °C in a CO2-incubator. The cytopathic effect (CPE) inhibition assay and real-time reverse transcription-PCR (RT-PCR) assay were used to evaluate virucidal effect of the tested compounds.
We previously described this method in detail in [22]. We performed the MTT assay to evaluate the antiviral activity of polyphenolic compounds. The viral inhibition rate (IR, %) was calculated according to Equation (1):(1) IR, %=Atv−Acv/Acd−Acv×100, where Atv is the absorbance of cells infected with HSV-1 pretreated with the studied compounds,
We calculated the selectivity index (SI) as the ratio of CC50 to IC50. Experiments were repeated three times.

[5] = tested on: HSV-1; test: Virucidal activity, RT-PCR assay (HSV-1 pretreated with compounds); format: cell-based, HSV-1 strain L2; settings: for Ct: 72 h; for −ΔCt: vs virus control
Experimental: Vero cells grown on 96-well plates were infected with the virus (100 TCID50/mL), pretreated with polyphenolic compounds at concentrations 0.1, 1 and 10 μg/mL. After 72 h of cell incubation, viral DNA was extracted from the supernatants, and the relative level of HSV-1 DNA was determined using RT-PCR. The effect of polyphenols on the relative level of viral DNA was assessed using the 2^−∆Ct method and reported as fold reduction compared to virus control.
as §1, §2
We performed the RT-PCR assay as we previously described in detail in [22]. Briefly, HSV-1 DNA was extracted after incubation from cell supernatants by using the DNA-sorb-AM (K1-12-100-CE) nucleic acid extraction kit (AmpliSens®, Moscow, Russia) according to the manufacturer′s instructions. We treated the supernatants with a lysis solution that contained guanidine chloride (chaotropic agent) in the presence of sorbent (silica particles). As the elution solution was added, the DNA was […] silica particles and separated from the sorbent particles by centrifugation.
We detected the DNA of HSV-1 in the obtained samples using the AmpliSens® HSV I, II-FRT-100F PCR kit (AmpliSens®, Moscow, Russia) on a real-time PCR instrument Rotor-Gene Q (Qiagen, Hilden, Nordrhein-Westfalen, Germany) according to the manufacturer′s instructions. The PCR reaction conditions were the following: initial denaturation at 95 °C for 15 min; then 5 cycles at 95 °C for 5 s, at 60 °C for 20 s, at 72 °C for 15 s; then 40 cycles at 95 °C for 5 s, at 60 °C for 20 s, and at 72 °C for 15 s. A negative sample was used as the amplification control for each run. The threshold cycle number Ct, was measured as the PCR cycle, where the amount of the amplified target reached the threshold value; the Ct values ≥ 37 indicated the absence of the HSV-1 DNA in the samples. We assessed the anti-HSV-1 activity of the studied compounds by the reduction in the viral DNA levels using the 2^−ΔCt method according to Equation (2):(2) ΔCt=Ctcv−Cttv where Ct is the threshold cycle number measured as the PCR cycle, where the amount of the amplified target reached the threshold value, […]

[6] = Human alphaherpesvirus 1, 72 h, read-out: 2^−ΔCt
[7] = Human alphaherpesvirus 1, 72 h, read-out: log10

## COc1ccc(-c2coc3c4c(ccc3c2=O)O[C@@H](c2cc(O)cc(O)c2)[C@H](c2ccc(O)c(O)c2)O4)cc1 [Compound 10, maackiazin]
[1]
  effect on viability of 6-OHDA-treated Neuro-2a cells (in words): weak effect on cell viability
[2]
  reduction of ROS levels in 6-OHDA-treated Neuro-2a cells: 20%
[3]
  CC50: 156 µg/mL and 297 µM
[4]; Human alphaherpesvirus 1, virus pretreated with compound (virucidal), CPE assay, Vero cells, 100 TCID50/mL
  IC50: 6.6 µg/mL and 12.5 µM
[4]; ratio of CC50 to IC50, virucidal scheme
  SI: 23.7 ± 3.1
[5]; 0.1 µg/mL
  Ct: 18.4 ± 2.4
  −ΔCt: −0.300 ± 0.03
[5]; 1 µg/mL
  Ct: 20.2 ± 2.6
  −ΔCt: −2.1 ± 0.3
[5]; 10 µg/mL
  anti-HSV-1 activity by RT-PCR (in words): significantly reduced the level of viral DNA
  Ct: 28.0 ± 3.9
  −ΔCt: −9.9 ± 1.1
[5]; [6]
  activity at 0.1 µg/mL: 81.2 ± 11%
  activity at 1 µg/mL: 23.3 ± 3%
  activity at 10 µg/mL: 0.105 ± 0.01%
[5]; [7]
  log reduction at 0.1 µg/mL: 0.09 ± 0.01
  log reduction at 1 µg/mL: 0.6 ± 0.08
  log reduction at 10 µg/mL: 2.9 ± 0.4
